Earlier results, collected in patent US20080102144A1, “FAT BETA-OXIDATION ENHANCING AND CARBOHYDRATE ABSORPTION INHIBITION SUPPLEMENT” (priority 2006, published 2008).
Read-outs that look alike come from different tables or passages of the source.

Legend:
[1] = mice
[2] = test system: hepatic glucose-6-phosphate (G-6-P); settings: rate-limiting step in gluconeogenesis
[3] = test system: carnitine palmitoyltransferase; settings: 0.5% and 1.0% supplemented diets after 6 days
[4] = human studies, as opposed to triacylglycerol, no increase in energy expenditure
[5] = 16 weeks, versus triacylglycerol

## Cn1c(=O)c2c(ncn2C)n(C)c1=O [caffeine]
[1]
  total serum triglyceride levels: decreased

## O=C(/C=C/c1ccc(O)c(O)c1)O[C@@H]1C[C@](O)(C(=O)O)C[C@@H](O)[C@H]1O [chlorogenic acid]
3T3-preadipocyte cells; 3T3-preadipocyte cells
  cell cycle phase of proliferation arrest: G1 phase
3T3-preadipocyte cells; addition to 3T3-preadipocyte tissue cultures
  proliferation of 3T3-preadipocyte cells: inhibited the proliferation in both and a time- and dose-dependant manner
[2]
  inhibition of hepatic glucose-6-phosphate (G-6-P): selectively inhibit
[3]
  carnitine palmitoyltransferase activity in the liver: did not enhance

## diacylglycerol
After a single dose, compared to triacylglycerol
  hepatic fat oxidation: significant increase
Animal studies, compared against triacylglycerol
  β-oxidation of fatty acids: increase
Rats fed diacylglycerol
  glucose-6-phophate dehydrogenase, malic enzyme, fatty acid synthase and fatty acid synthesis: lower
  mitochondrial and peroxisome oxidation of palmtoyl-CoA in liver homogenates: increased
[4]
  β-oxidation of fatty acids: increase
[5]
  body mass index: significant decrease
  body weight: significant decrease
  total fat area as assessed by CT scan: significantly reduced
  waist circumference: significant decrease
